In article PMC4426631, “Insect antimicrobial peptides show potentiating functional interactions against Gram-negative bacteria” (Proceedings of the Royal Society B: Biological Sciences, 2015):
“Also recorded” adds a separate entry of the source. Ends that are not written are not given here. Peptide text beside a SMILES is read from it. * marks the point of attachment. 5FAM = O=C1OC2(c3ccc(O)cc3Oc3cc(O)ccc32)c2ccc(C(=O)*)cc21; Cf = 5(6)-carboxyfluorescein

Assays:
E. coli DnaK [1] = target: T1, E. coli DnaK (Escherichia coli, UniProt P0A6Y8); experiment: FRET quenching peptide–protein interaction assay with DnaK–BHQ10; assay type: binding; details: 2 h, n = 3; for DnaK interaction / binding-curve shape, in words / Kd not determinable: pH 7.4; for Kd not determinable: DnaK–BHQ10 quenching, peptide N-terminal carboxyfluorescein, C-terminal amide
T1 sequence (P0A6Y8 whole entry): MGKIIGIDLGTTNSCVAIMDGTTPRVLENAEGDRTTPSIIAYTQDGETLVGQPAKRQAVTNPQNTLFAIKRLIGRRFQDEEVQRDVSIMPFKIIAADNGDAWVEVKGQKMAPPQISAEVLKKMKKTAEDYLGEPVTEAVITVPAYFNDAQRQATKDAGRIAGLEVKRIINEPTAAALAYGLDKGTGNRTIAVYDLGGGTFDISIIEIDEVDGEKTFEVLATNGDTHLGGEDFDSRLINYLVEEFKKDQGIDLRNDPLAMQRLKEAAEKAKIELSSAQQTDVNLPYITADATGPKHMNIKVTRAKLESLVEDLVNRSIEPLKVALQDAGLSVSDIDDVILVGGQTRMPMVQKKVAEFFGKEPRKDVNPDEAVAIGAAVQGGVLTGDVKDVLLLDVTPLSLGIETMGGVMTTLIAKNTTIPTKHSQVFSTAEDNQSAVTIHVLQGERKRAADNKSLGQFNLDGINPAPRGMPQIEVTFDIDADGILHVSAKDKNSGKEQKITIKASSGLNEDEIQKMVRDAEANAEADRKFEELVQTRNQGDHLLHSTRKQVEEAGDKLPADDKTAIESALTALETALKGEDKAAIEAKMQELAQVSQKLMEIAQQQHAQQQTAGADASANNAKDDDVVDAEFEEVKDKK
Protocol: DnaK, produced by Michael Zahn, was dialysed against modifying buffer (20 mmol l^−1 Na2HPO4, 20 mmol l^−1 KH2PO4, 5 mmol l^−1 MgCl2, 150 mmol l^−1 KCl, pH 7.4) as previously described and 2 mg ml^−1 were labelled with a 10-fold molar excess of BHQ10-NHS-ester, followed by supplementary dialysis to remove excess BHQ10.
As previously described, the fluorescein-modified peptides (50 μl, 1.3 nmol l^−1) and a serial dilution of DnaK–BHQ10 in modification buffer (50 μl, 0.8–13 000 nmol l^−1, 1 : 4 dilution series) were mixed in a black 384-well plate and incubated for 2 h. To calculate the quenching effect, a control was measured in five replicates consisting of 50 μl of peptide solution and 50 μl of modification buffer. The fluorescence intensity was recorded on a Paradigm fluorescence reader using a fluorescence intensity (fluo-rhod) detection cartridge (excitation wavelength = 485 ± 10 nm; emission wavelength = 535 ± 12.5 nm; integration time = 140 ms). The quenching effect was defined as the percentage of the fluorescence intensity of the control quenched after the addition of DnaK–BHQ10. Kd values were determined as described in the electronic supplementary material. […]
i) Peptide synthesis and modification.
The peptide sequences shown in Tabl es S1 an d S4 were selected according to their repo rted […]
(Carmel, USA), respectively. The m ature peptide sequences were based on data from closel y-related species and EST information derived from B. terrestris. Other peptides were s ynthesized b y PANATecs (Tübingen, Germ an y) . All peptides were l yoph ilized for storage, and were resuspended and diluted in double-distilled water, which was used as the zero peptide […]
metchnikowin 1 and 2 (Drosophila melanogaster) peptides were modified by the N -terminal addition of 5(6 )-carbox yfluorescein and C -terminal amidation for the quenching assa y. Bombus pascuorum h ymenoptaecin was modified b y the addition of an N-terminal p yroglutamate. The Black Hole Quencher 10 succinimidyl ester (BHQ10-NHS-ester, >75% purit y) was obtained from BioCat (H eidelber g, German y). […]

E. coli DnaK [2] = target: T1, E. coli DnaK; details: ref [51]; cited from earlier work
[3] = test system: substrate-binding domain of DnaK; details: co-crystal structures; ref [58]; cited from earlier work
Source text: Normally, the characteristic sequence stretch YL/IPRP is positioned in the DnaK substrate-binding cleft, with a leucine or isoleucine residue occupying the central hydrophobic pocket. Additional hydrophobic binding sites preceding the central pocket are occupied by the conserved tyrosine residue and another, preferentially hydrophobic amino acid residue, defined as posi ...

E. coli = test system: E. coli; design: method as in PMID 6396089; details: following treatment with H. cecropia attacin; ref [15]; cited from earlier work
[4] = fluorescein-modified peptide 1.3 nmol l−1, DnaK–BHQ10 0.8–13 000 nmol l−1

Compound | DnaK interaction / binding-curve shape, in words (E. coli DnaK [1]; [4]) | Kd not determinable (E. coli DnaK [1]) | also measured
CC[C@H](C)[C@H](NC(=O)[C@H](CCCCN)NC(=O)[C@@H]1CCCN1C(=O)[C@H](CC(N)=O)NC(=O)[C@H](Cc1ccccc1)NC(=O)[C@@H]1CCCN1C(=O)CNC(=O)[C@H](Cc1c[nH]cn1)NC(=O)CNC(=O)[C@@H]1CCCN1C(=O)[C@H](Cc1ccccc1)NC(=O)[C@H](CO)NC(=O)[C@@H]1CCCN1C(=O)[C@H](Cc1ccccc1)NC(=O)[C@@H]1CCCN1C(=O)[C@H](CCCCN)NC(=O)[C@H](CO)NC(=O)[C@H](CCC(N)=O)NC(=O)CNC(=O)[C@@H]1CCCN1C(=O)[C@H](CCCNC(=N)N)NC(=O)[C@@H]1CCCN1C(=O)[C@@H]1CCCN1C(=O)[C@H](CC(N)=O)NC(=O)[C@H](Cc1ccc(O)cc1)NC(=O)[C@@H]1CCCN1C(=O)[C@@H](NC(=O)[C@H](Cc1ccccc1)NC(=O)c1ccc2c(c1)C(=O)OC21c2ccc(O)cc2Oc2cc(O)ccc21)C(C)C)C(=O)N[C@@H](CCC(N)=O)C(=O)N[C@@H](Cc1c[nH]c2ccccc12)C(=O)N1CCC[C@H]1C(=O)N[C@@H](Cc1ccc(O)cc1)C(=O)N1CCC[C@H]1C(=O)N[C@@H](CC(C)C)C(=O)N1CCC[C@H]1C(=O)N[C@@H](CC(N)=O)C(=O)N1CCC[C@H]1C(=O)NCC(=O)N[C@@H](Cc1c[nH]cn1)C(N)=O [B. pascuorum abaecin] (5FAM-FVPYNPPRPGQSKPFPSFPGHGPFNPKIQWPYPLPNPGH-NH2) | – | – | maximum quenching effect (binding efficacy) (E. coli DnaK [1]; fluorescein-modified peptide 1.3 nmol l−1, DnaK–BHQ10 0.8–13 000 nmol l−1, buffer pH 7.4, fluorescence): 74%
Cf-PQPRPPHPRL-OH [apidaecin 1b (#9–18)] | small increase in control readouts with increasing probe concentration | – | DnaK interaction of control peptide, in words (E. coli DnaK [2]): interacts minimally with DnaK
Pyrrhocoricin: proline-rich DnaK-binding AMP (VDKGSYLPRPTPPRPIYNRN; ends and bridges not checked; UniProt P37362 1-20, looked up) | – | – | DnaK binding orientation [3]: can bind to DnaK in both of the above orientations
cecropin B: Hyalophora cecropia cecropin B (KWKVFKKIEKMGRNIRNGIVKAGPAIAVLGEAKAL; ends and bridges not checked; UniProt P01508 27-61, looked up) | – | – | sensitivity of E. coli towards cecropin B following attacin (E. coli): enhanced
drosocin: proline-rich DnaK-binding AMP (GKPRPYSPRPTSHPRPIRV; ends and bridges not checked; UniProt P36193 22-40, looked up) | – | – | DnaK binding orientation [3]: a proline residue near the C-terminus of drosocin occupies the central pocket
metalnikowin I: proline-rich AMP from Palomena prasina (Cf-VDKPDYRPRPRPPNM-NH2) | do not interact significantly with bacterial DnaK | No Kd values could be determined; also recorded: not possible to assign a Kd value | –
metchnikowin 1: proline-rich AMP from Drosophila melanogaster (Cf-HRHQGPIFDTRPSPFNPNQPRPGPIY-NH2) | do not interact significantly with bacterial DnaK | No Kd values could be determined; also recorded: not possible to assign a Kd value | –
metchnikowin 2: proline-rich AMP from Drosophila melanogaster (Cf-HRRQGPIFDTRPSPFNPNQPRPGPIY-NH2) | do not interact significantly with bacterial DnaK | No Kd values could be determined; also recorded: not possible to assign a Kd value | –
